The test in a line: GAPDH and PEG-3 promoter luciferase suppression – cell-based, luminescence, set 2, counter-screen for PEG-3 promoter inhibitor project, dose response (AID 651549). The conditions noted are these: HeLa PEG-Prom-luciferase or GAPDH-reporter, 6/24 h.

Active and inactive are the calls of the source.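 Rule for the calls: active = compounds blocking the PEG3 reporter with IC50 up to 10 µM at either incubation, yet sparing the GAPDH control reporter; inactive = the rest.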

With `Cc1cc(C)cc(NS(=O)(=O)c2ccc3[nH]cc(C(=O)NCc4ccco4)c(=O)c3c2)c1`, for the setting “GAPDH, run 1, 6 h”, the IC50 result was “inactive”. Further, the 50% inhibitory concentration (IC50) (GAPDH, run 1, 24 h) was 2.43 µM; the IC50 (PEG-3, run 1, 6 h) is > 99 µM (inactive); the IC50 (PEG-3, run 1, 24 h) was 5.44 µM.
The like results for `CCCCCCCn1c(=N)n(CC(=O)c2ccco2)c2ccccc21` were, in that order, “inactive”, “inactive”, “inactive” and “inactive”.
In the same order, the values of `CCSc1nc2ccccc2n1C(=O)/C=C\c1ccc(OC)c(OC)c1` are 6.8 µM, 5.39 µM, 6.76 µM and 6.91 µM.
With `CC1CC(C)C(=O)C(C(CC2CC(=O)NC(=O)C2)OC(=O)CC(=O)c2ccccc2)C1` (stereo not given), the IC50 (GAPDH, run 1, 6 h) is 1.36 µM; the IC50 (GAPDH, run 1, 24 h) is 7.25 µM; the IC50 (PEG-3, run 1, 6 h) was 5.46 µM. Besides, where the note is “PEG-3, run 1, 24 h”, the IC50 entry was “inactive”.
In the same order, the values of `CC1CCN(c2nc3ccc(C(=O)O)cc3s2)CC1` are 1.93 µM, 2.14 µM, 1.01 µM and 1.51 µM.
In the same order, the values of `COc1ccc(C(=O)Nc2ccc(C)cn2)c(OC)c1` are 1.07 µM, 3.41 µM, 3.63 µM and 4.17 µM.
In the same order, the values of `COC(=O)c1ccc2nc(Nc3nc4ccc(F)cc4s3)sc2c1` are less than 1 µM, 0.533 µM, less than 1 µM and 2.74 µM.
Regarding `CC(CCc1ccccc1)NC(=O)COC(=O)c1ccc(S(C)(=O)=O)c([N+](=O)[O-])c1` (stereo not given), the IC50 result runs as follows: (GAPDH, run 1, 6 h) “inactive”; (GAPDH, run 1, 24 h) “inactive”; (PEG-3, run 1, 6 h) “inactive”. Besides, the IC50 (PEG-3, run 1, 24 h) was 9.86 µM.
In the case of `CCC(C)(C)c1ccc(Oc2ccc(N)cc2)cc1`, the half-maximal inhibitory concentration (IC50) reads like this: (GAPDH, run 1, 6 h) 5.21 µM; (GAPDH, run 1, 24 h) 0.566 µM; (PEG-3, run 1, 6 h) 7.48 µM; (PEG-3, run 1, 24 h) 7.31 µM.
`Cc1cc(C)c(C)c(S(=O)(=O)N2CCN(C(=O)c3cc(=O)[nH]c4ccccc34)CC2)c1C`: the IC50 result (GAPDH, run 1, 6 h) is “inactive” and the IC50 result (PEG-3, run 1, 24 h) was “inactive”. Moreover, the IC50 was 4.79 µM (GAPDH, run 1, 24 h) and > 99 µM (inactive) (PEG-3, run 1, 6 h).
With `CS(=O)(=O)Nc1cccc(NC(=O)C2Cc3c(-c4ccccc4)ccnc3O2)c1` (stereo not given), the IC50 was > 99 µM (inactive) (GAPDH, run 1, 6 h); 4.26 µM (GAPDH, run 1, 24 h); > 99 µM (inactive) (PEG-3, run 1, 6 h); 5.57 µM (PEG-3, run 1, 24 h).
Turning to `CS(=O)(=O)c1ccc(-c2sc3ccccc3c2C#CCCO)cc1`, the IC50 result by setting is: (GAPDH, run 1, 6 h) “inactive”; (GAPDH, run 1, 24 h) “inactive”; (PEG-3, run 1, 6 h) “inactive”; (PEG-3, run 1, 24 h) “inactive”.
`CCC1(O)C(=O)OCc2c1cc1n(c2=O)Cc2cc3cc(O)ccc3nc2-1` (stereo not given): the IC50 reads like this: (GAPDH, run 1, 6 h) 3.1 µM; (GAPDH, run 1, 24 h) 4.36 µM; (PEG-3, run 1, 6 h) 3.1 µM; (PEG-3, run 1, 24 h) 9.31 µM.
Take `CC(=O)OC1CC[C@]2(C#N)[C@H]3CC[C@]4(C)[C@H](C5C=CC(=O)O5)CCC4(O)C3CCC2(O)C1` (stereo not given in full): the IC50 (GAPDH, run 1, 6 h) was 6.51 µM and the half-maximal inhibitory concentration (IC50) (PEG-3, run 1, 6 h) is 1.6 µM. Moreover, the IC50 entry is “inactive” (GAPDH, run 1, 24 h) and “inactive” (PEG-3, run 1, 24 h).
Take `C=CCn1c(C)cc(C(=O)COc2ccc(C)nc2[N+](=O)[O-])c1C`: the IC50 is, setting by setting: (GAPDH, run 1, 6 h) 8.44 µM; (PEG-3, run 1, 6 h) 9.65 µM; (PEG-3, run 1, 24 h) 3.38 µM. The IC50 entry (GAPDH, run 1, 24 h) was “inactive”.
In the same order, the values of `O=C(Nc1ccccc1C(=O)Nc1nnc(C(F)(F)F)s1)c1ccccc1` are 1.41 µM, > 99 µM (inactive), “inactive” and 7.02 µM.
The like results for `O=C(NCC1CCCO1)C(c1ccc(F)cc1)N(C(=O)Cn1nnc(-c2ccc(F)cc2)n1)c1cccc(O)c1` (stereo not given) were, in that order, “inactive”, > 99 µM (inactive), “inactive” and “inactive”.
The like results for `CCOC(=O)c1ccc2nc(Nc3nc4ccc(F)cc4s3)sc2c1` were, in that order, > 99 µM (inactive), 0.31 µM, less than 1 µM and > 99 µM (inactive).
In the case of `COc1ccc(CC2C(=O)NC(C)C(=O)N(C)C3C(=O)N(C)C(Cc4ccc(O)c(c4)Oc4ccc(cc4)C3O)C(=O)NC(C)C(=O)NC(C)C(=O)N2C)cc1` (stereo not given), the IC50 reads like this: (GAPDH, run 1, 6 h) less than 1 µM; (GAPDH, run 1, 24 h) less than 1 µM; (PEG-3, run 1, 6 h) less than 1 µM; (PEG-3, run 1, 24 h) less than 1 µM.
As for `Cc1cccc(NC(=O)c2oc3ccc(S(=O)(=O)N4CCOCC4)cc3c2C)c1C`, the IC50 entry (GAPDH, run 1, 6 h) was “inactive”. The IC50 is, setting by setting: (GAPDH, run 1, 24 h) 6.39 µM; (PEG-3, run 1, 6 h) > 99 µM (inactive); (PEG-3, run 1, 24 h) 8.47 µM.

(Values after PubChem BioAssay AID651549 (Sanford-Burnham Center for Chemical Genomics, 2012).)
